Data: ChEMBL document CHEMBL5346938, “Bis-chalcones: A review of synthetic methodologies and anti-inflammatory effects” (Eur J Med Chem, 2023)

Legend:
Rattus norvegicus [1] = assay: Anti-inflammatory activity against carrageenan-induced paw edema in Sprague-Dawley rat assessed as inhibition of paw edema at 10 mg/kg, ip measured after 3 hrs relative to control; assay type: functional; parameters: scale not given: the % may be the effect or the level left
Rattus norvegicus [2] = assay: Anti-inflammatory activity against carrageenan-induced paw edema in Sprague-Dawley rat assessed as reduction in edema measured after 3 hrs relative to indomethacin; assay type: functional; parameters: concentration or dose not given beside the values
Rattus norvegicus [3] = assay: Anti-inflammatory activity against carrageenan-induced paw edema in Sprague-Dawley rat assessed as inhibition of paw edema at 10 mg/kg, ip measured after 6 hrs relative to control; assay type: functional; parameters: scale not given: the % may be the effect or the level left
Rattus norvegicus [4] = assay: Anti-inflammatory activity against carrageenan-induced paw edema in Sprague-Dawley rat assessed as reduction in edema measured after 6 hrs relative to indomethacin; assay type: functional; parameters: concentration or dose not given beside the values
[5] = biological target: COX-1/COX-2 (Homo sapiens) (UniProt P35354+P23219); assay: Selectivity index, ratio of IC50 for COX-1 (unknown origin) to IC50 for COX-2 (unknown origin); assay type: protein assay
Sequence of COX-1/COX-2 (Homo sapiens) (P23219 whole entry, looked up, one chain of several): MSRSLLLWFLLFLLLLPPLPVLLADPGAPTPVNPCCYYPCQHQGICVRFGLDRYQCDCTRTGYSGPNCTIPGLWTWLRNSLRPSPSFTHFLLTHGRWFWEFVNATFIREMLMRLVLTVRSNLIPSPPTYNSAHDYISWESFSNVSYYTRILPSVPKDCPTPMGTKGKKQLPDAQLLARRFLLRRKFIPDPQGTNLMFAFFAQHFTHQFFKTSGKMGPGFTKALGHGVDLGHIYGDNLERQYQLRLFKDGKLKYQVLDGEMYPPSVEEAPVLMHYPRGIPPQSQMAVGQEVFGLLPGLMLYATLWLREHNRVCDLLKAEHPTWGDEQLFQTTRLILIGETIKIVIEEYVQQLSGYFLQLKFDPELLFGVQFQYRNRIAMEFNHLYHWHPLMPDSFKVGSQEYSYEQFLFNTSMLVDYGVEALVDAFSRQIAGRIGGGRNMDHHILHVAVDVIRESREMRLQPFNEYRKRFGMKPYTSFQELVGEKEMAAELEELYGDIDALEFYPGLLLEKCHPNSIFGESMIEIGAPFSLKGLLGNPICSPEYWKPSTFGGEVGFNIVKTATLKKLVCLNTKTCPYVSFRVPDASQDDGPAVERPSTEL

[6] = biological target: T1, Prostaglandin G/H synthase 2 (Homo sapiens, UniProt P35354); assay: Inhibition of COX-2 (unknown origin)
T1 sequence (P35354 whole entry): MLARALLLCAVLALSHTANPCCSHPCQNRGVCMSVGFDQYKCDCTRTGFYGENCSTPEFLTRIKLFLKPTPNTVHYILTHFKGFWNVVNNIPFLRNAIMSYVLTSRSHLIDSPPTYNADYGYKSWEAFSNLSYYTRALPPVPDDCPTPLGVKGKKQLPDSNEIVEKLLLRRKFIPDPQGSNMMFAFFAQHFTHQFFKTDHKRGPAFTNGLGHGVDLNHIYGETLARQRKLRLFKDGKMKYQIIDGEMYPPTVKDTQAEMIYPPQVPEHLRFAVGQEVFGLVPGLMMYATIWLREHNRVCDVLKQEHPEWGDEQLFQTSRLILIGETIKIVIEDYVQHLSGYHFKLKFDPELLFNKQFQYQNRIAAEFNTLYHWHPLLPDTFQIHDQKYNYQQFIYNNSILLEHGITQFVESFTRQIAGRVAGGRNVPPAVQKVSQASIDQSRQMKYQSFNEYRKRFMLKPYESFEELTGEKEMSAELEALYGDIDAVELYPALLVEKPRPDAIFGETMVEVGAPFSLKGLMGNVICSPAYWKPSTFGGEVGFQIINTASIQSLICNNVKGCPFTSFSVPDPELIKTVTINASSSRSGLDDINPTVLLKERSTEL

Rattus norvegicus [7] = assay: Anti-inflammatory activity against Carrageenan-induced paw edema in rat assessed as reduction in edema measured after 6 hrs relative to control; assay type: functional; parameters: concentration or dose not given beside the values
[8] = biological target: T2, Seed linoleate 13S-lipoxygenase-1 (Glycine max) (UniProt P08170); assay: Inhibition of soybean LOX-1 using linoleic acid as substrate at 100 uM relative to control
T2 sequence (whole entry): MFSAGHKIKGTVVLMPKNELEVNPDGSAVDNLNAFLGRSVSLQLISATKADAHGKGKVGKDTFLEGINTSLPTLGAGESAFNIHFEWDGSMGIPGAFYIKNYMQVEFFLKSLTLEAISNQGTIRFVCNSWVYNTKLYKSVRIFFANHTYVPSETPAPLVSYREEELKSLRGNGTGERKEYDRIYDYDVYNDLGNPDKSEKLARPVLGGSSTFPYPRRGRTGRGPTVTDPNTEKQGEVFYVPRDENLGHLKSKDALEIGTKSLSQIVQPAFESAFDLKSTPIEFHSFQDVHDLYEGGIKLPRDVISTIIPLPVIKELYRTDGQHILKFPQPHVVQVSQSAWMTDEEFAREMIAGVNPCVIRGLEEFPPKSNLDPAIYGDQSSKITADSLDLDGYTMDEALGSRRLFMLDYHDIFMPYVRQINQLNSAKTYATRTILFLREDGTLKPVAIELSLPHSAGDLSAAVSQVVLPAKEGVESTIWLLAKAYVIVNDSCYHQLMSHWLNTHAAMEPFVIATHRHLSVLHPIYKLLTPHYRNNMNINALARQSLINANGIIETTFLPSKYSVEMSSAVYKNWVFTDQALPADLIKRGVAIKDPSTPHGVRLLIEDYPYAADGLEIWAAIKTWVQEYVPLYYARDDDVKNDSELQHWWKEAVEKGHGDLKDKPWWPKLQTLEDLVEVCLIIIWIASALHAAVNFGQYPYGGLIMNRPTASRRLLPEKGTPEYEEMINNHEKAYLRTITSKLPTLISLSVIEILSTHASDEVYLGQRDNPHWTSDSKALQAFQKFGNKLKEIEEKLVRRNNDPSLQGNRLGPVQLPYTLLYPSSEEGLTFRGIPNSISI

[9] = biological target: T3, Seed linoleate 13S-lipoxygenase-1 (Glycine max, UniProt P08170); assay: Inhibition of soybean LOX-1 using linoleic acid as substrate
T3 sequence (P08170 whole entry): T2 sequence (whole entry)

RAW264.7 = assay: Inhibition of LPS-induced NFkappaB activation in mouse RAW264.7 cells assessed as effect on LPS-induced nuclear translocation of NF-kappaB incubated for 1 hr at 5 uM relative to control; assay type: cell-based
[10] = Inhibition of LPS-induced NFkappaB activation in mouse RAW264.7 cells assessed as effect on LPS-induced nuclear translocation of NF-kappaB incubated for 1 hr; assay type: cell-based; conditions: RAW264.7, 1 h
BV-2 = assay: Antiinflammatory activity in mouse BV-2 cells assessed as reduction in LPS-induced nitric oxide production at 10 uM relative to control; assay type: functional; parameters: scale not given: the % may be the effect or the level left

In the case of Cc1c(C(=O)/C=C/c2ccco2)c(C(=O)/C=C/c2ccco2)nn1-c1ccccc1, the Activity (Rattus norvegicus [1]) is reported as 28.15%, the Activity (Rattus norvegicus [2]) is reported as 61.45% and the Activity (Rattus norvegicus [3]) is reported as 28.61%. It also gave an Activity (Rattus norvegicus [4]) of 58.6%.

Compound COc1ccc(/C=C/C(=O)c2nn(-c3ccc(Cl)cc3)c(C)c2C(=O)/C=C/c2ccc(OC)cc2)cc1 has a Ratio IC50 [5] of 333, an IC50 [6] of 300 nM and an Activity (Rattus norvegicus [7]) of 66.21%.

Work on Cc1ccc(-n2nc(C(=O)/C=C/c3ccc(Cl)cc3Cl)c(C(=O)/C=C/c3ccc(Cl)cc3Cl)c2C)cc1 yielded an Activity (Rattus norvegicus [7]) of 10.71%.

CN(C)c1ccc(/C=C/C=C/C(=O)c2ccc(OCCCCCCCCOc3ccc(C(=O)/C=C/C=C/c4ccc(N(C)C)cc4)cc3)cc2)cc1 gave an inhibition [8] of 12%.

COc1ccc(/C=C/C(=O)c2nn(-c3ccc(Br)cc3)c(C)c2C(=O)/C=C/c2ccc(OC)cc2)cc1 showed a Ratio IC50 [5] of 76 and an IC50 [6] of 700 nM.

Work on CN(C)c1ccc(/C=C/C=C/C(=O)c2ccc(OCCCOc3ccc(C(=O)/C=C/C=C/c4ccc(N(C)C)cc4)cc3)cc2)cc1 yielded an inhibition [8] of 93% and an IC50 [9] of 56000 nM.

In the case of COc1ccc(/C=C/C(=O)c2nn(-c3ccc(C)cc3)c(C)c2C(=O)/C=C/c2ccc(OC)cc2)cc1, the Activity (Rattus norvegicus [1]) is reported as 27.43%, the Activity (Rattus norvegicus [2]) is reported as 59.87% and the Activity (Rattus norvegicus [3]) is reported as 21.38%. It also gave an Activity (Rattus norvegicus [4]) of 43.78%.

With Cc1ccc(-n2nc(C(=O)/C=C/c3ccccc3)c(C(=O)/C=C/c3ccccc3)c2C)cc1 the Activity (Rattus norvegicus [1]) was 28.72%, the Activity (Rattus norvegicus [2]) was 62.69% and the Activity (Rattus norvegicus [3]) was 30.16%. For the same compound, the Activity (Rattus norvegicus [4]) was 61.76%.

In the case of COc1ccc(/C=C/C(=O)c2nn(-c3ccccc3)c(C)c2C(=O)/C=C/c2ccc(OC)cc2)cc1, the Activity (Rattus norvegicus [1]) is reported as 32.69%, the Activity (Rattus norvegicus [2]) is reported as 71.35% and the Activity (Rattus norvegicus [3]) is reported as 35.92%. It also gave an Activity (Rattus norvegicus [4]) of 73.56%.

In the case of O=C(/C=C/c1cccs1)c1ccc(OCCCOc2ccc(C(=O)/C=C/c3cccs3)cc2)cc1, the inhibition [8] is reported as 32%.

In the case of Cc1ccc(-n2nc(C(=O)/C=C/c3ccco3)c(C(=O)/C=C/c3ccco3)c2C)cc1, the Activity (Rattus norvegicus [1]) is reported as 9.69%, the Activity (Rattus norvegicus [2]) is reported as 21.14% and the Activity (Rattus norvegicus [3]) is reported as 11.33%. The Activity (Rattus norvegicus [4]) was 23.2%.

Work on CN(C)c1ccc(/C=C/C=C/C(=O)c2ccc(OCCCCOc3ccc(C(=O)/C=C/C=C/c4ccc(N(C)C)cc4)cc3)cc2)cc1 yielded an inhibition [8] of 27%.

Cc1c(C(=O)/C=C/c2ccco2)c(C(=O)/C=C/c2ccco2)nn1-c1ccc(Cl)cc1 showed a Ratio IC50 [5] of 65.3, an IC50 [6] of 1500 nM and an Activity (Rattus norvegicus [7]) of 27.86%.

With O=C(/C=C/c1ccc(Oc2ccccc2)cc1)c1ccc(OCCCOc2ccc(C(=O)/C=C/c3ccc(Oc4ccccc4)cc3)cc2)cc1 the inhibition [8] was 100% and the IC50 [9] was 55000 nM.

In the case of O=C(/C=C/c1ccc(OCc2ccc(Br)cc2)cc1)c1ccc(OCCCOc2ccc(C(=O)/C=C/c3ccc(OCc4ccc(Br)cc4)cc3)cc2)cc1, the inhibition [8] is reported as 41%.

In the case of Cc1ccc(/C=C/C(=O)c2ccc(OCCCOc3ccc(C(=O)/C=C/c4ccc(C)o4)cc3)cc2)o1, the inhibition [8] is reported as 52%.

In the case of Cc1c(C(=O)/C=C/c2ccco2)c(C(=O)/C=C/c2ccco2)nn1-c1ccc(F)cc1, the Activity (Rattus norvegicus [7]) is reported as 16.79%.

Cc1c(C(=O)/C=C/c2ccccc2)c(C(=O)/C=C/c2ccccc2)nn1-c1ccccc1 gave an Activity (Rattus norvegicus [1]) of 32.58%, an Activity (Rattus norvegicus [2]) of 77.66% and an Activity (Rattus norvegicus [3]) of 38.9%. The Activity (Rattus norvegicus [4]) was 79.67%.

O=C(/C=C/c1c[nH]c2ccccc12)c1ccc(OCCCOc2ccc(C(=O)/C=C/c3c[nH]c4ccccc34)cc2)cc1 showed an inhibition [8] of 98%.

In the case of O=C(/C=C/C(Br)=C/c1ccccc1)c1ccc(OCCCOc2ccc(C(=O)/C=C/C(Br)=C/c3ccccc3)cc2)cc1, the inhibition [8] is reported as 24.5%.

Work on Cc1c(C(=O)/C=C/c2ccc(Cl)cc2Cl)c(C(=O)/C=C/c2ccc(Cl)cc2Cl)nn1-c1ccc(F)cc1 yielded an Activity (Rattus norvegicus [7]) of 13.57%.

Cc1ccc(-n2nc(C(=O)/C=C/c3ccc(Cl)cc3)c(C(=O)/C=C/c3ccc(Cl)cc3)c2C)cc1 showed an Activity (Rattus norvegicus [1]) of 21.23%, an Activity (Rattus norvegicus [2]) of 59.87% and an Activity (Rattus norvegicus [3]) of 25.92%. The Activity (Rattus norvegicus [4]) was 53.08%.

In the case of Cc1c(C(=O)/C=C/c2ccc(Cl)cc2Cl)c(C(=O)/C=C/c2ccc(Cl)cc2Cl)nn1-c1ccc(Br)cc1, the Activity (Rattus norvegicus [7]) is reported as 9.26%.

Compound O=C(/C=C/C=C/c1ccccc1)c1ccc(OCCCOc2ccc(C(=O)/C=C/C=C/c3ccccc3)cc2)cc1 has an inhibition [8] of 41%.

Work on O=C1/C(=C/c2ccccn2)CNC/C1=C\c1ccccn1 yielded an inhibition (RAW264.7) of 100% and an IC50 [10] of 4500 nM.

CN(C)c1ccc(/C=C/C=C/C(=O)c2ccc(OCCCCCCCOc3ccc(C(=O)/C=C/C=C/c4ccc(N(C)C)cc4)cc3)cc2)cc1 showed an inhibition [8] of 65%.

In the case of CC(/C=C/C(=O)c1ccc(OCCCOc2ccc(C(=O)/C=C/C(C)=C/c3ccccc3)cc2)cc1)=C\c1ccccc1, the inhibition [8] is reported as 26.5%.

Cc1c(C(=O)/C=C/c2ccc(Cl)cc2)c(C(=O)/C=C/c2ccc(Cl)cc2)nn1-c1ccccc1 gave an Activity (Rattus norvegicus [1]) of 24.37%, an Activity (Rattus norvegicus [2]) of 53.2% and an Activity (Rattus norvegicus [3]) of 28.31%. The Activity (Rattus norvegicus [4]) was 57.97%.

CN(C)c1ccc(/C=C/C=C/C(=O)c2ccc(OCCCCCOc3ccc(C(=O)/C=C/C=C/c4ccc(N(C)C)cc4)cc3)cc2)cc1 gave an inhibition [8] of 23%.

COc1cc(/C=C/C(=O)c2cccc(C(=O)/C=C/c3ccc(O)c(OC)c3)c2)ccc1O showed an Activity (BV-2) of 70%.

COc1ccc(/C=C/C(=O)c2nn(-c3ccc(F)cc3)c(C)c2C(=O)/C=C/c2ccc(OC)cc2)cc1 gave a Ratio IC50 [5] of 312, an IC50 [6] of 320 nM and an Activity (Rattus norvegicus [7]) of 65.21%.

Compound O=C(/C=C/c1cccc2ccccc12)c1ccc(OCCCOc2ccc(C(=O)/C=C/c3cccc4ccccc34)cc2)cc1 has an inhibition [8] of 100% and an IC50 [9] of 55000 nM.

With Cc1c(C(=O)/C=C/c2ccc(Cl)cc2Cl)c(C(=O)/C=C/c2ccc(Cl)cc2Cl)nn1-c1ccccc1 the Activity (Rattus norvegicus [7]) was 12.86%.

O=C(/C=C/c1ccccc1)c1ccc(OCCCOc2ccc(C(=O)/C=C/c3ccccc3)cc2)cc1 gave an inhibition [8] of 76%.

O=C(/C=C/c1ccco1)c1ccc(OCCCOc2ccc(C(=O)/C=C/c3ccco3)cc2)cc1 gave an inhibition [8] of 57%.

For CN(C)c1ccc(/C=C/C=C/C(=O)c2ccc(OCCCCCCOc3ccc(C(=O)/C=C/C=C/c4ccc(N(C)C)cc4)cc3)cc2)cc1, the inhibition [8] was 7%.

For CN(C)c1ccc(/C=C/C=C/C(=O)c2ccc(OCCOc3ccc(C(=O)/C=C/C=C/c4ccc(N(C)C)cc4)cc3)cc2)cc1, the inhibition [8] was 77%.

Compound Cc1c(C(=O)/C=C/c2ccco2)c(C(=O)/C=C/c2ccco2)nn1-c1ccc(Br)cc1 has an Activity (Rattus norvegicus [7]) of 1.07%.

For O=C(/C=C/C=C/c1ccc([N+](=O)[O-])cc1)c1ccc(OCCCOc2ccc(C(=O)/C=C/C=C/c3ccc([N+](=O)[O-])cc3)cc2)cc1, the inhibition [8] was 95%.

Cc1c(C(=O)/C=C/c2ccc(Cl)cc2Cl)c(C(=O)/C=C/c2ccc(Cl)cc2Cl)nn1-c1ccc(Cl)cc1 gave an Activity (Rattus norvegicus [7]) of 15.36%.
